Patent publication US20250276955A1, “CORONAVIRUS MAIN PROTEASE INHIBITORS AND METHODS USING SAME” (Baylor College of Medicine, priority 2021, published 2025)
“Also recorded” adds a separate entry of the source.

Columns and labels:
[1] = test system: SARS-COV-2 (USA_WA1/2020 isolate) in VERO E6 cells; assay: Real-Time Cell Analysis (RTCA) assay of SARS-COV-2 replication; type: cell-based
HepG2 cells [2] = assay: HepG2 cytotoxicity assay (XTT); conditions: 100 μM
[3] = molecular target: SARS-COV-2 M^pro (authentic N- and C-termini) (Severe acute respiratory syndrome coronavirus 2, UniProt P0DTD1); assay: biochemical; type: biochemical
[4] = Metabolic stability in human liver microsomes; type: in vitro ADME
Method: (§1) The samples were collected at specific time-points 0, 30, and 60 min in duplicate. The reactions were terminated by adding an equivalent volume of ice-cold methanol and vortexed. […] Three μL of the supernatant was analyzed by UHPLC-Q Exactive Orbitrap MS (Thermo Fisher Scientific, USA) equipped with 50 mm×4.6 mm column (XDB C-18, Agilent Technologies, USA). The column temperature was maintained at 40° C. The flow rate was at 0.3 mL/min with a 30% mobile phase (acetonitrile containing 0.1% formic acid). Q Exactive MS was operated in positive mode with electrospray ionization. Ultra-pure nitrogen was applied as the sheath (45 arbitrary unit), auxiliary (10 arbitrary unit), sweep (1.0 arbitrary unit) and the collision gas. […] MS data were acquired from 80 to 1,200 Da in profile mode.

[5] = Plasma stability assay, mouse plasma; type: in vitro ADME; conditions: 10 μM, 37° C., after 2 h incubation
Method: (§2) Compound CDD-1713 and CDD-1976 were incubated in human and mouse plasma respectively at a concentration of 10 μM in duplicate (n=2) at 37° C. At time-points of 0, 30, 60 and 120 min, 15 μL of sample were taken out and the reactions terminated by adding 75 μL of ice-cold methanol. The reaction mixtures were then vortexed for 30 sec and centrifuged at rcf 15,000 for 15 min. Following centrifugation, 3 μL of the supernatant was analyzed using UHPLC-Q Exactive Orbitrap MS. The percentage of test compound remaining at the individual time points relative to the 0 min sample was then determined.

HepG2 cells [6] = assay: HepG2 cell uptake assay; type: in vitro ADME; conditions: 10 μM, 2 hours
Method: The HepG2 cells maintained in DMEM (containing 1 g/L glucose, 10% fetal bovine serum and 1% penicillin/streptomycin) were seeded in a 12-well plate (a final density of 5×10^5/well) for cell uptake assay and 96-well plate for cytotoxicity assay (a final density of 5×10^4/well). The plate was incubated at 37° C. for 24 h.
The cells in 12-well plate were treated with CDD-1713 or CDD-1976 (final concentration: 10 μM). The plate was incubated at 37° C. for another 2 hr. The medium in the plate was decanted and the cells were rinsed with 1 mL of 1×DPBS for three times. 0.5 mL of 0.25% Trypsin was added into each well and incubated for 3.5 min (at 37° C.). 1 mL of complete medium was added into each well to quench the reaction. After spinning at 350×g for 5 min, the cell pellet was reconstituted in MeOH/H2O (v/v 1/1) and CDD-1713 or CDD-1976 was extracted from 100 μL of the resulting mixture with 100 μL of ice-cold methanol. The mixtures were centrifuged at rcf 15,000 for 15 min. Three μL of the supernatant was analyzed by UHPLC-Q Exactive Orbitrap MS (Thermo Fisher Scientific, USA) equipped with 50 mm×4.6 mm column (XDB C-18, Agilent Technologies, USA). The column temperature was set at 40° C. Ultra-pure nitrogen was applied as the sheath (45 arbitrary unit), auxiliary (10 arbitrary unit), sweep (1.0 arbitrary unit) and the collision gas. […]

[7] = Plasma stability assay, human plasma; type: in vitro ADME; conditions: 10 μM, 37° C., after 2 h incubation
Method: as §2

[8] = molecular target: SARS-CoV-2 main protease (M^pro) (Severe acute respiratory syndrome coronavirus 2, UniProt P0DTD1); assay: Protein thermal shift stability assay (SYPRO Orange); type: binding
[9] = Metabolic stability in mouse liver microsomes; type: in vitro ADME; conditions: 0.5 mg protein/mL, 2.0 μM compound, 1.0 mM NADPH
Method: as §1

SARS-COV-2 M^pro-His6 = SARS-COV-2 M^pro-His6 (Severe acute respiratory syndrome coronavirus 2, UniProt P0DTD1); assay: biochemical; type: biochemical; conditions: 25 nM enzyme, 15 μM fluorescent peptide, Morrison equation; Inactive = less than 50% inhibition at 25 μM compound; read-out: M^pro-His Ki

In the case of `CN(C)C(=O)COc1ccc(-c2cccc3[nH]ncc23)cc1C=O` [CDD-1976], the IC50 ([1]; Severe acute respiratory syndrome coronavirus 2, Vero C1008, 75 h, read-out: IC50, inhibition of SARS-COV-2 induced cell death (RTCA)) is reported as 2500 nM, the “prevention of SARS-COV-2 induced cell death (in words)” value ([1]; VERO E6 cells, 75 h) is reported as “reduced cell death in a dose-dependent manner” and the “cytotoxicity in HepG2 cells (in words)” value (HepG2 cells [2]) is reported as “no obvious cytotoxicity”. For the same molecule, the “M^pro inhibition (in words)” value [3] was “better inhibition compared to CDD-1713”, the Ki ([3]; 25 nM enzyme, 15 μM fluorescent peptide, Morrison equation, Inactive = less than 50% inhibition at 25 μM compound, read-out: M^pro Ki) was 42 ± 5 nM and the “HLM t1/2 (half-life)” value ([4]; 0.5 mg protein/mL, 2.0 μM compound, 1.0 mM NADPH) was 41.4. The “metabolic stability in human liver microsomes (in words)” value ([4]; human, microsomes) was “more stable”, the “compound remaining in mouse plasma” value [5] was 80% and the “cell permeability in HepG2 uptake assay (in words)” value (HepG2 cells [6]) was “moderate cell permeability”. The “compound remaining in human plasma” value [7] was 80%, the “stabilization of M^pro in thermal shift assay (in words)” value [8] was “stabilized; also recorded: concentration-dependent stabilization; also recorded: most pronounced temperature shift” and the “MLM t1/2 (half-life)” value [9] was 10.2. For the same molecule, the Ki (SARS-COV-2 M^pro-His6) was 37 ± 4 nM.
